According to patent publication US5162354A, “3-halo-5-halomethyl-2-oxazolidinones and their use as microbicides” (Buckman Laboratories International, Inc., priority 1991, dated 1992):
In brackets after ≈: the same amount, converted by molar mass.

Key:
Type in all cases: cell-based
Aspergillus niger = assay: Growth inhibiting activity on the fungus Aspergillus niger; details: Aspergillus niger pH 6.0; completely prevented growth; read-out: Minimum inhibitory concentration against fungi
Procedure: The microorganism growth inhibiting activity of compounds 1-4 on the fungus Aspergillus niger was evaluated. The method is described in U.S. Pat. No. 4,945,109, column 5 beginning at line 47 to column 6, line 33. The disclosure of U.S. Pat. No. 4,945,109 is incorporated herein by reference.

Chlorella pyrenoidosa = assay: Growth inhibiting activity against algae in Difco Algae Broth (Chlorella pyrenoidosa); details: Auxenochlorella pyrenoidosa, 672 h, pH 7, read-out: Minimum inhibitory concentration against algae
Procedure: (§1) The growth inhibiting activity of the method of the invention against the three algae Chlorella pyrenoidosa, Chlorococcum hypnosporum and Phormidium inundatum was evaluated in Difco Algae Broth, the content of which was as follows:
(§2) Forty-gram portions of the algae medium were added to 250 mL Pyrex Erlenmeyer flasks fitted with loose metal caps and then sterilized. Each of the following substances was then added to the flasks in the order listed:
(§3) 1. Sterile algae medium as required to bring the total weight of the contents of each flask to 50 grams, after allowing for all subsequent additions specified below.
(§4) 2. A solution of one of compounds 1-4 or of a control agent to be evaluated in each test, to give the concentration desired in parts per million by weight.
(§5) 3. Chlorella pyrenoidosa, Chlorococcum hypnosporum and Phormidium inundatum in amounts sufficient to give excellent growth in the controls after 14 days. This was achieved by adding 1 milliliter of a 14 day old culture having luxuriant growth. The Chlorella pyrenoidosa culture was obtained from American Type Culture Collection No. 7516; Chlorococcum hypnosporum, from the University of TX at Austin; and Phormidium inundatum, WI No. 1093, from the University of WA.
(§6) As a control experiment, WSCP was used as a positive control agent. WSCP is a known toxicant which kills C. pyrenoidosa at 2 ppm, C. hypnosporum at 2ppm, and P. inundatum at 10 ppm. Control experiments were also carried out where no toxicants were employed. In the algicidal tests, the growth of algae in the nutrient medium is lush green and can be seen with the naked eye. Because the minimum inhibitory concentrations of the compounds in this example are those which result in complete inhibition, evaluation of the test results is not subjective.
(§7) After the inoculum of the test algae was added, the flasks were incubated at a temperature of 28°±2° C. under fluorescent illumination of 250 foot-candle intensity (8 hours light, 16 hours darkness) for a period adequate for growth in the controls (those portions of medium which contained no toxicant). Observations of growth were made at 7-day intervals. Minimum inhibitory concentrations are those that prevented complete growth after 28 days.

Chlorococcum hypnosporum = assay: Growth inhibiting activity against algae in Difco Algae Broth (Chlorococcum hypnosporum); details: 672 h, pH 7, read-out: Minimum inhibitory concentration against algae
Procedure: as §1, §2, §3, §4, §5, §6, §7

Escherichia coli [1] = assay: AOAC Disinfectant Swimming Pool Assay (Escherichia coli); details: 10 min, contact time 10 minutes, read-out: MIC (Minimum inhibitory concentration required to inhibit microorganisms)
Procedure: (§8) This example was based on the procedure described in AOAC (Association of Official Analytical Chemists) Official Methods of Analysis (1986) pp 75-77. The results obtained by this method are suitable for presumptive evidence of acceptability of products for disinfecting swimming pool water. The results obtained for Compound 1 in a contact time of 10 minutes are noted in Table IV.

Salmonella choleraesuis = assay: AOAC Disinfectant Swimming Pool Assay (Salmonella choleraesuis); details: Salmonella enterica, 10 min, contact time 10 minutes, read-out: MIC (Minimum inhibitory concentration required to inhibit microorganisms)
Procedure: as §8

Streptococcus faecalis [2] = assay: AOAC Disinfectant Swimming Pool Assay (Streptococcus faecalis); details: Enterococcus faecalis, 10 min, contact time 10 minutes, read-out: MIC (Minimum inhibitory concentration required to inhibit microorganisms)
Procedure: as §8

Escherichia coli [3] = assay: AOAC Germicidal and Detergent Sanitizing Action of Disinfectants (Escherichia coli)
Procedure: (§9) This test is conducted according to AOAC methods described in AOAC Official Methods of Analysis (1984) p 70. This test is suitable for chemicals that can be permitted for use in sanitizing precleaned non-porous food contact surfaces. This test also determines the effectiveness of compounds tested in hard water. Most of the detergents/sanitizers available in the market become ineffective in the presence of hard water, i.e. water containing calcium and/or magnesium ions. A water hardness value of 400 ppm was chosen because it is considered to be the highest hardness value for tap water in the United States.

Streptococcus faecalis [4] = assay: AOAC Germicidal and Detergent Sanitizing Action of Disinfectants (Streptococcus faecalis)
Procedure: as §9

[5] = Hard Water (400 ppm calcium carbonate)

Question: `O=C1OC(CCl)CN1Br` (stereo not shown) [Compound 1, 3-Bromo-5-chloromethyl-2-oxazolidinone] was tested. Which MIC (Aspergillus niger) did it give?
Answer: 10 µg/mL (≈ 46.6 µM)

Question: And the MIC (Chlorella pyrenoidosa)?
Answer: 10 µg/mL (≈ 46.6 µM)

Question: What about the MIC (Chlorococcum hypnosporum) of the same molecule?
Answer: 10 µg/mL (≈ 46.6 µM)

Question: And the MIC (Escherichia coli [1])?
Answer: 80 µg/mL (≈ 373 µM)

Question: And the MIC (Salmonella choleraesuis)?
Answer: 80 µg/mL (≈ 373 µM)

Question: What about the MIC (Streptococcus faecalis [2]) of the same molecule?
Answer: 80 µg/mL (≈ 373 µM)

Question: And the “Minimum inhibitory concentration required to inhibit microorganisms” value (Escherichia coli [3]; [5])?
Answer: 80 parts per million (w/v)

Question: What about the MIC (Escherichia coli [3]; Soft Water, read-out: Minimum inhibitory concentration required to inhibit microorganisms) of the same molecule?
Answer: 80 µg/mL (≈ 373 µM)

Question: What about the MIC (Streptococcus faecalis [4]; Enterococcus faecalis, Soft Water, read-out: Minimum inhibitory concentration required to inhibit microorganisms) of the same molecule?
Answer: 80 µg/mL (≈ 373 µM)

Question: And the “Minimum inhibitory concentration required to inhibit microorganisms” value (Streptococcus faecalis [4]; [5])?
Answer: 80 parts per million (w/v)
